Experimental data taken from paper PMC8179393 (Chemical Science, 2021).

Assays:
OVCAR8 cells = experiment: Cellular cisplatin sensitization assay; assay type: cell-based, human; conditions: OVCAR8, absence of cisplatin, peptide 50 μM or chloroquine 5 μM, 48 h
HEY cells = experiment: Cellular cisplatin sensitization assay; assay type: cell-based, human; conditions: absence of cisplatin, peptide 50 μM or chloroquine 5 μM, 48 h

## CCN(CC)CCCC(C)Nc1ccnc2cc(Cl)ccc12 (centres unmarked) [chloroquine]
OVCAR8 cells
  cell viability (MTT), in words: significantly reduced cell viability
HEY cells
  cell viability (MTT), in words: significantly reduced cell viability
